What was measured:
PD-L1 [1] = biological target: PD-L1 (Homo sapiens, UniProt Q9NZQ7); assay: Hek-IL-18 SEAP reporter assay of CCR8 and CCR8.2 stimulated with PD-L1; type: cell-based; conditions: 650 nm, IL-18 standard
Protocol: The biological function of the CCR constructs was tested with Hek-IL-18 SEAP reporter lines. CCR8 and CCR8.2 transduced HekIL-18 reporter cells (5×10^4) were stimulated with the indicated concentration of PD-L1 (His tagged) in the presence of anti-His antibody (antibody:protein ratio=2:1; e.g., for 5 μg/mL PD-L1, add 10 μg/mL anti-His antibody). After 24 hours, supernatants were harvested, and SEAP level was determined with a spectrophotometer at 650 nm after adding Quanti-blue solution. CCR12 and CCR12.2 transduced HekIL-18 reporter cells (5×10^4) were stimulated with the indicated concentration of TROP-2 (His tagged) in the presence of anti-His antibody (antibody:protein ratio=2:1). After 24 hours, supernatants were harvested, and SEAP level was determined with a spectrophotometer at 650 nm after adding Quanti-blue solution.

TIL [2] = assay: AKT inhibitor (ipatasertib) added during ex vivo TIL expansion: expansion, viability, phenotype; type: cell-based
Protocol: Patient tumors from different indications were received, fragmented, and subjected to an expansion protocol for TIL manufacturing. Different doses (0.3 μM and 1 μM) of the pan-AKT inhibitor ipatasertib were added to the culture during ex vivo expansion. The expansion potential, as well as the phenotypic and functional characteristics were evaluated on the final TIL product. Eight tumors, including tumors from melanoma, NSCLC, head and neck cancer, ovarian cancer, and breast cancer, were used in combination with the Gen 2 process. […] Expansion, viability and T cell distribution in control and AKT inhibitor-treated TILs are shown. TILs were left untreated or treated with increasing concentrations of the pan-AKT inhibitor ipatasertib. Treatment was added either during the pre-REP and REP (blue bars) or during the REP stage only (purple bars). Fold expansion and viability of TIL at the end of the 22-day expansion process are shown. Frequency of CD8^+, CD4^+ and CD4^+ (Foxp3^+) cells after the expansion process on cryopreserved cells are also shown.

TIL [3] = assay: Cytokine expression of TILs after overnight anti-CD3/CD28 bead stimulation; type: cell-based
From the text: Control or decitabine-treated cryopreserved TILs were thawed and stained for flow cytometry analysis.

PD-L1 [4] = biological target: T1, PD-L1 (human, UniProt Q9NZQ7 19-238, limits assumed); assay: EC50 of anti-PD-L1 antibody clone; assay not given
T1 construct: also called hPD-L1; CD274
T1 sequence (Q9NZQ7 19-238 limits assumed): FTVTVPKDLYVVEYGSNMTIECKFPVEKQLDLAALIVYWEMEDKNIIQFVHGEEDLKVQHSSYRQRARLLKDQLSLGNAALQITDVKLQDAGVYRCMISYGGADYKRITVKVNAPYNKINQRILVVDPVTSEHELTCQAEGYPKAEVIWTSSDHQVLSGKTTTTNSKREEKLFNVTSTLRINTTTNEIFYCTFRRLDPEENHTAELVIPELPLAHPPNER

[5] = biological target: T2, human PD-L1 on hPD-L1 Raji cells (human, UniProt Q9NZQ7 19-290); assay: flow cytometry on hPD-L1 Raji cells, titration in the presence of the other antibody
T2 construct: whole, on cells
T2 sequence (Q9NZQ7 19-290): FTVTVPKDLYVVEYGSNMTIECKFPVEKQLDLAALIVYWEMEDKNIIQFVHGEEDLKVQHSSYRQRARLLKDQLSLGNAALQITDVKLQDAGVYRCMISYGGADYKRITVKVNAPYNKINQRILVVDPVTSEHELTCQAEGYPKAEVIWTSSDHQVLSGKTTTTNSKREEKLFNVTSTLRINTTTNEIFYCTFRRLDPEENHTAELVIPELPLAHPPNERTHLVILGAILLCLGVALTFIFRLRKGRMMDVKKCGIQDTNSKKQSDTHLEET

Sequence of PD-L1 (Homo sapiens, UniProt Q9NZQ7) (Q9NZQ7 19-290): as above

Molecule: IL-18: IL-18 standard in Hek-IL-18 SEAP reporter assay
- IL-18 stimulation equivalent to an OD value of 0.5 (PD-L1 [1]): about 3.175 pg/mL

Molecule: CC(C)NC[C@@H](C(=O)N1CCN(c2ncnc3c2[C@H](C)C[C@H]3O)CC1)c1ccc(Cl)cc1 [ipatasertib]
- IL-7R and CXCR3 expression on CD8+ TILs (TIL [2]): increase
- TOX expression following stimulation (TIL [2]): lower
- frequency of CD8+ TEMRA cells (TIL [2]): increase
- frequency of less differentiated CD8+CD69−CD39− T cells on CD8+ and CD4+ TILs (TIL [2]): increases
- expansion and viability of TILs relative to controls (TIL [2]; 1 μM dose): equivalent
- expression of CD38 and transcription factors T-bet and TOX in CD39− CD69− cells (TIL [2]; 1 μM dose): reduced expression
- population of less differentiated CD39− CD69− cells (TIL [2]; 1 μM dose): doubled
- T cell ratios (CD8+, CD4+, CD4+ Foxp3+) (TIL [2]; after the expansion process): without affecting
- TIL expansion and viability (TIL [2]; pre-REP and REP or REP only, end of 22-day expansion): maintains
- frequency of IFNγ+TNFα+CD8+ T cells (TIL [3]): increase
- cytokine output following stimulation (TIL [3]; 1 μM at pre-REP and REP, anti-CD3/CD28 beads overnight, bead-to-cell ratio 1:5): higher cytokine output

B1: 19H9-IgG4-Flag (antibody)
chain: QVQLQESGGGLVKPGGSLRLSCAASGFTFSSYSMNWVRQAPGKGLEWVSGINTAGDTHYPESVKGRFTISRDNARNSLNLQMNSLRAEDTAVYYCVRERVEREYSGYDAFDIWGQGTTVTVSAGGGGSGGGGSGGGGSGAPNFMLTQPHSVSESLGKTVTISCTGSSGSIARKFVQWYQQRPGSSPTTVIYENNQRPSGVSDRFSGSIGSSSNSASLTISGLKTEDEADYYCQSYDSSNVVFGGGTKVTVL
- EC50 (PD-L1 [4]): 0.125 nM

B2: 38A1-IgG4-HA (antibody)
chain: EVQLVESGGGLVQPGGSLRLSCAASGFTFSNYAMSWVRQAPGKGLEWVSTISGSGGTTYYADSVKGRFTISRDNSKNTLYLQMNSLRVEDTAVYYCAKDWFRSSSPDAFDIWGQGTTVTVSAGGGGSGGGGSGGGGSGAPSYVLTQPPSVSVAPGQTARITCGGNNIGRKIVHWYQQRPGQAPVLVIYYDTDRPAGIPERFSGSNSGNMATLTISTVGAGDEADYYCQVWDTGSDHVVFGGGTKLTVL
notes: The order of the parts and the format (scFv-IgG4 Fc-HA) of the tested protein are not spelled out; Detected with anti-HA-APC; also called anti-PD-L1 Ab clone 38A1-IgG4-HA; scFv-Fc antibody 38A1; not shown: IgG4 part, known only from the name 38A1-IgG4-HA; HA tag
- binding result [5]: binds

B3: 19H9-IgG4-Flag (antibody)
chain: QVQLQESGGGLVKPGGSLRLSCAASGFTFSSYSMNWVRQAPGKGLEWVSGINTAGDTHYPESVKGRFTISRDNARNSLNLQMNSLRAEDTAVYYCVRERVEREYSGYDAFDIWGQGTTVTVSAGGGGSGGGGSGGGGSGAPNFMLTQPHSVSESLGKTVTISCTGSSGSIARKFVQWYQQRPGSSPTTVIYENNQRPSGVSDRFSGSIGSSSNSASLTISGLKTEDEADYYCQSYDSSNVVFGGGTKVTVL
notes: The order of the parts and the format of the tested protein are not spelled out; Detected with anti-Flag-AF488; also called 19H-IgG4-Flag; scFv-Fc antibody 19H9; not shown: IgG4 part, known only from the name 19H9-IgG4-Flag; Flag tag
- binding result [5]: binds

B4: 38A1-IgG4-HA (antibody)
chain: EVQLVESGGGLVQPGGSLRLSCAASGFTFSNYAMSWVRQAPGKGLEWVSTISGSGGTTYYADSVKGRFTISRDNSKNTLYLQMNSLRVEDTAVYYCAKDWFRSSSPDAFDIWGQGTTVTVSAGGGGSGGGGSGGGGSGAPSYVLTQPPSVSVAPGQTARITCGGNNIGRKIVHWYQQRPGQAPVLVIYYDTDRPAGIPERFSGSNSGNMATLTISTVGAGDEADYYCQVWDTGSDHVVFGGGTKLTVL
- EC50 (PD-L1 [4]): 0.404 nM

Source: patent US20260021181A1, “CHIMERIC COSTIMULATORY RECEPTORS, CHEMOKINE RECEPTORS, AND THE USE OF SAME IN CELLULAR IMMUNOTHERAPIES” (Iovance Biotherapeutics, Inc., priority 2022, published 2026)
